Measurements from US20240335569A1, “FIBROBLAST ACTIVATION PROTEIN INHIBITORS AND USE THEREOF” (3 B PHARMACEUTICALS GMBH, priority 2021, published 2024).
Like-named read-outs stand apart in the source and are kept apart here.

Key:
[1] = Plasma stability assay (mouse plasma); format: in vitro ADME; conditions: 37° C., 4 h
Protocol: In order to determine the stability of selected compounds of the invention in human and mouse plasma, a plasma stability assay was carried out. Such plasma stability assay measures degradation of compounds of the present invention in blood plasma. This is an important characteristic of a compound as compounds, with the exception of pro-drugs, which rapidly degrade in plasma, generally show poor in vivo efficacy. […] The stability is sufficient for the diagnostic, therapeutic and theragnostic use of these compounds according to the present invention.
The plasma stability samples were prepared by spiking 50 μl plasma aliquots (all sodium citrate 3.8%) with 1 μL of a 0.5 mM compound stock solution in DMSO. After vortexing, the samples were incubated in a Thermomixer at 37° C. for 4 or 6 hours. After incubation, the samples were stored on ice until further treatment. All samples were prepared in duplicates.
A suitable internal standard was added to each sample (1 μL of a 0.5 mM stock solution in DMSO). Protein precipitation was performed using two different methods depending on the compound conditions as indicated in Table 7. • A) 250 μL of acetonitrile containing 1% trifluoroacetic acid was added. […] After incubation at room temperature for 30 min, the precipitate was separated by centrifugation. To 100 μL of the supernatant 10 μL of 1% formic acid was added followed by further incubation at 60° C. for 10 min to complete the formation of the zinc chelate, if the compound contains a free DOTA moiety.
The determination of the analyte in the clean sample solutions was performed on an Agilent 1290 UHPLC system coupled to an Agilent 6530 Q-TOF mass spectrometer. The chromatographic separation was carried out on a Phenomenex BioZen XB-C18 HPLC column (50×2 mm, 1.7 μm particle size) with gradient elution using a mixture of 0.1% formic acid in water as eluent A and acetonitrile as eluent B (2% B to 41% in 7 min, 800 μL/min, 40° C.). Mass spectrometric detection was performed in positive ion ESI mode by scanning the mass range from m/z 50 to 3000 with a sampling rate of 2/sec.
From the mass spectrometric raw data, the ion currents for the double or triple charged monoisotopic signal was extracted for both, the compound and the internal standard.
Quantitation was performed by external matrix calibration with internal standard using the integrated analyte signals.
The result is stated as “% intact compound remaining after 4 h or 6 h” and means that from the amount of material at the start of the experiment the stated percentage is detected as unchanged material at the end of the experiment by LC-MS quantification. Since all compounds are more than 50% intact after at least 4 h they are considered as stable enough for diagnostic and therapeutic applications.

Human recombinant FAP [2] = target: T1, Human recombinant FAP (Homo sapiens (Human), UniProt Q12884); test: FAP protease activity assay (human), FRET-based; format: biochemical; conditions: recombinant human FAP, FRET protease activity
Protocol: (§1) In order to determine the inhibitory activity a FRET-based FAP protease activity assay was established.
Four parameter logistic (4PL) curve fitting and pIC50 calculations were performed using ActivityBase software (IDBS).
Target sequence in this assay (Q12884 26-760): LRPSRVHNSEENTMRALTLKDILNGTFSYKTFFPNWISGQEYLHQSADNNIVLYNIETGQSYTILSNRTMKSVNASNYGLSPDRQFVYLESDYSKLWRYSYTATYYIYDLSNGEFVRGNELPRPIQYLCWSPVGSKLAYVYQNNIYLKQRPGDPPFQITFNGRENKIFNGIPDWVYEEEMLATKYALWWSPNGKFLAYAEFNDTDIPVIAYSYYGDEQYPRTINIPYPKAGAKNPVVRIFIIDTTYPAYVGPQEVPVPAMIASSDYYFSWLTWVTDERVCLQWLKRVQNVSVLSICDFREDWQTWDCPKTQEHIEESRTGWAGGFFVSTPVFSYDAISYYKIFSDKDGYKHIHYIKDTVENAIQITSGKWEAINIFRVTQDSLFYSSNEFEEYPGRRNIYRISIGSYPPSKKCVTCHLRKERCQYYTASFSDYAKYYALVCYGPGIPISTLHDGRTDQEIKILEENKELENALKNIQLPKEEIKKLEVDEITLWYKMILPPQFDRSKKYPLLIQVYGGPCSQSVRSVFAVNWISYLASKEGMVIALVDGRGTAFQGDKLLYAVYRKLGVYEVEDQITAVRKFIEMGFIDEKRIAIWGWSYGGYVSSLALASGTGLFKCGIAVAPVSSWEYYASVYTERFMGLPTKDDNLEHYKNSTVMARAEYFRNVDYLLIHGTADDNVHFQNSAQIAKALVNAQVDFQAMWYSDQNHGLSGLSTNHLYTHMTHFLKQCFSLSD

recombinant human PREP = recombinant human PREP (Homo sapiens (Human), UniProt P48147); test: PREP protease activity assay; format: biochemical
Sequence of recombinant human PREP (P48147 whole entry): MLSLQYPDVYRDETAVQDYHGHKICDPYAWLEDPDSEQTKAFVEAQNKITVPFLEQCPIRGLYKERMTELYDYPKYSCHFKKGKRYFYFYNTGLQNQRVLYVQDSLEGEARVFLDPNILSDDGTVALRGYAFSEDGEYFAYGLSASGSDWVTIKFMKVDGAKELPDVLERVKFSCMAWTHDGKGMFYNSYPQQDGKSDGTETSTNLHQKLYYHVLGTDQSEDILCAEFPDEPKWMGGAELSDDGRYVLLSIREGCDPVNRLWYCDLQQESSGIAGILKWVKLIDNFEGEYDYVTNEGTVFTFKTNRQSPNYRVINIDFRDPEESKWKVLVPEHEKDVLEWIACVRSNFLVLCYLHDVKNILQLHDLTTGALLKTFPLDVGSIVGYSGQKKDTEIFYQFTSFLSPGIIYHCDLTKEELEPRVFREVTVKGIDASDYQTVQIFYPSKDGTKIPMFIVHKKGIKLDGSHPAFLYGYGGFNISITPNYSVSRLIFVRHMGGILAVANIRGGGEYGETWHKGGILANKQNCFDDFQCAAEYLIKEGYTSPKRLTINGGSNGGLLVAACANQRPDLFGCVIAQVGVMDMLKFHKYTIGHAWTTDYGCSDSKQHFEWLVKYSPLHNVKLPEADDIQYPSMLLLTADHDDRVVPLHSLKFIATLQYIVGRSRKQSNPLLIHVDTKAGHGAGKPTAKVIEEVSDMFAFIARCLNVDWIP
Protocol: (§2) The PREP activity assay was performed using the FACS buffer (PBS including 1% FBS, Sigma-Aldrich, Cat #D8537). […] The DPP4 activity assay was performed in DPP assay buffer (25 mM Tris, pH 8.0). […] Four parameter logistic (4PL) curve fitting and pIC50 calculations were performed using ActivityBase software.

Recombinant human DPP4 = Recombinant human DPP4 (Homo sapiens (Human), UniProt P27487); test: DPP4 protease activity assay; format: biochemical
Sequence of Recombinant human DPP4 (P27487 whole entry): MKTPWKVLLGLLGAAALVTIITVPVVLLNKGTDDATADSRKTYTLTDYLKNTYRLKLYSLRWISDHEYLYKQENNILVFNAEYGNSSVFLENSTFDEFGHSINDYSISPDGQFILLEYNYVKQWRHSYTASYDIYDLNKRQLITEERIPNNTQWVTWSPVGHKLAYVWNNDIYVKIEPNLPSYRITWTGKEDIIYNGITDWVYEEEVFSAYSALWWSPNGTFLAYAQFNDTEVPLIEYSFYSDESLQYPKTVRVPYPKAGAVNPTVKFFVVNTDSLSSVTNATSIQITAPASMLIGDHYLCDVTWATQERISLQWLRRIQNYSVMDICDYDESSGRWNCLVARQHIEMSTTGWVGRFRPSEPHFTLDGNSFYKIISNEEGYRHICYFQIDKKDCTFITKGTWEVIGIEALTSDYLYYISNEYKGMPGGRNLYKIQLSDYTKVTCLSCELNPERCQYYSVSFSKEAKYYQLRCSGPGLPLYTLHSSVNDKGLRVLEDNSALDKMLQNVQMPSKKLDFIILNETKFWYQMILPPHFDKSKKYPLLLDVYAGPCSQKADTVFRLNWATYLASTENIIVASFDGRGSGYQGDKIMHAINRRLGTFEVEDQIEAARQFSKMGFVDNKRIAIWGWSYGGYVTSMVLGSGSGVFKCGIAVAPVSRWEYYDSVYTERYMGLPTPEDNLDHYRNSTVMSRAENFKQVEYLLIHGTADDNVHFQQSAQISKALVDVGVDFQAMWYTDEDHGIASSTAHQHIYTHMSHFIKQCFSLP
Protocol: as §2

Human recombinant FAP [3] = target: T1, Human recombinant FAP; test: Surface plasmon resonance assay (Biacore T200, SCK); format: binding; conditions: for HL [min] (Biacore): SPR dissociation half-life
Protocol: Surface plasmon resonance studies were performed using a Biacore™ T200 SPR system (Cytiva, formerly GE Healthcare). Briefly, polarized light is directed towards a gold-labeled sensor surface, and minimum intensity reflected light is detected. The angle of reflected light changes as molecules bind and dissociate. […] Test compounds are contacted with the loaded surface, and a real-time interaction profile with the FAP ligand is recorded in a sensorgram. In real-time, the association and dissociation of a binding interaction is measured, enabling calculation of association and dissociation rate constants and the corresponding affinity constants. Importantly, a background response is generated due to the difference in the refractive indices of the running and sample buffers, as well as unspecific binding of the test compounds to the flow cell surface. This background is measured and subtracted by running the sample on a control flow cell coated with the same density of capture antibody in the absence of immobilized FAP. Furthermore, baseline drift correction of the binding data is performed, which is caused by slow dissociation of the captured FAP from the immobilized antibody. This drift is measured by injecting running buffer through a flow cell with the antibody and FAP immobilized to the sensor surface.
Biacore™ CM5 sensor chips were used. […] A 150 μL aliquot was transferred into plastic vials and placed into the sample rack of the Biacore™ T200 instrument. Amine Coupling Kit Reagent solutions were transferred into plastic vials and placed into the sample rack: 90 μL of 0.4 M 1-ethyl-3-(3-dimethylaminopropyl) carbodiimide (EDC), and 90 μL of 0.1 M N-hydroxysuccinimide (NHS). A 130 μL aliquot of 1 M ethanolamine-HCl, pH 8.5, was transferred into plastic vials and placed into the sample rack. The Biacore™ liquid system was set-up as follows: Separate bottles containing distilled water (1 L), Running Buffer (500 mL), as well as an empty bottle for waste were placed onto the buffer tray. A preinstalled program for immobilization was used, with an immobilization level of 7000 RU. Immobilization was performed at 25° C. The immobilization procedure of anti-FAP antibodies was performed, as described in the Table 4.
Human recombinant FAP was diluted in Running Buffer to a final concentration of 20 μg/mL. A 100 μL aliquot of human FAP-Working-Solution was transferred into plastic vials and placed into a sample rack. A 0.5 mM Compound-Stock-Solution was prepared by dissolving each compound in DMSO. For each test compound, Compound-Stock-Solutions were diluted in Running Buffer (HBST) at 500 nM and further diluted with HBST-DMSO Buffer (0.1% DMSO). SPR binding analyses for binary complexes were performed in SCK mode at 25° C. Following three SCK measurements, a baseline drift was assessed by injecting running buffer through a flow cell, with the antibody and FAP immobilized to the sensor surface.
For each test compound, SPR raw data in the form of resonance units (RU) were plotted as sensorgrams using the Biacore™ T200 control software. The signal from the blank sensorgram was subtracted from that of the test compound sensorgram (blank corrected). The blank corrected sensorgram was corrected for baseline drift by subtracting the sensorgram of a SCK run without the test compound (running buffer only). The association rate (kon), dissociation rate (koff), dissociation constant (KD), and t1/2 were calculated from Blank-normalized SPR data using the 1:1 Langmuir binding model from the Biacore™ T200 evaluation software. Raw data and fit results were imported as text files in IDBS. The pKD value (negative decadic logarithm of dissociation constant) was calculated in the IDBS excel template.
Target sequence in this assay (Q12884 whole entry): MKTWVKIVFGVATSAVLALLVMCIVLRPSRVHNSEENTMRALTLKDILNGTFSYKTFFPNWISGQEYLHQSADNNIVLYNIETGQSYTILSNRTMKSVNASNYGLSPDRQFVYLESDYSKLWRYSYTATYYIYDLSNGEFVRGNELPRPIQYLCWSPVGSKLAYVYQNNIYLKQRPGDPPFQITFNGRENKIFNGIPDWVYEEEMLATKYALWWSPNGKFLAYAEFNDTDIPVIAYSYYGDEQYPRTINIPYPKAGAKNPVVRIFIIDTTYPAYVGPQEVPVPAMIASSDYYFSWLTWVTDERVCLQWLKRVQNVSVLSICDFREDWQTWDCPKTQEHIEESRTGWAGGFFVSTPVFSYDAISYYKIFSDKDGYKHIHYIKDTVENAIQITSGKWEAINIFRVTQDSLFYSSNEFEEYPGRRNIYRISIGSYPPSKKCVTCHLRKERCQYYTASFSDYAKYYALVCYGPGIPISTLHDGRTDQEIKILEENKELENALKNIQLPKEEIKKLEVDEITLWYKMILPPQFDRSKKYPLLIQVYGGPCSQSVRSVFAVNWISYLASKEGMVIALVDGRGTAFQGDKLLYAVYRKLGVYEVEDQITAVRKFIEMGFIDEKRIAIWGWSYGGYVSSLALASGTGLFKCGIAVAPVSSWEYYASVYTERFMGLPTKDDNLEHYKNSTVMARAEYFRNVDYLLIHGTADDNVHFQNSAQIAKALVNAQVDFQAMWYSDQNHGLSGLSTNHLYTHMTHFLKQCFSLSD

[4] = target: FAP-expressing human WI-38 fibroblasts (Homo sapiens (Human), UniProt Q12884); test: FACS binding assay (competitive, Cy5-labeled 3BP-2935); conditions: FAP-expressing WI-38 fibroblasts
Sequence of FAP-expressing human WI-38 fibroblasts (Q12884 whole entry): as above
Protocol: In order to determine binding of compounds according to the present invention to FAP-expressing cells, a competitive FACS binding assay was established. […] Cells were diluted in FACS buffer to a final concentration of 100.000 cells per ml and 200 μl of the cell suspension are transferred to a u-shaped non-binding 96-well plate (Greiner). […] Cell were washed twice with FACS buffer (see above) and resuspended in 200 μl FACS buffer. Cells were analyzed in an Attune NxT flow cytometer (Thermo Fisher Scientific). Median fluorescence intensities (Cy5 channel) were calculated by Attune NxT software and plotted against test compound concentrations. Four parameter logistic (4PL) curve fitting and pIC50 calculations were performed using ActivityBase software.

Recombinant mouse FAP = Recombinant mouse FAP (Mus musculus (Mouse), UniProt P97321); test: FAP protease activity assay (mouse), FRET-based; format: biochemical; conditions: recombinant mouse FAP, FRET protease activity
Sequence of Recombinant mouse FAP (P97321 whole entry): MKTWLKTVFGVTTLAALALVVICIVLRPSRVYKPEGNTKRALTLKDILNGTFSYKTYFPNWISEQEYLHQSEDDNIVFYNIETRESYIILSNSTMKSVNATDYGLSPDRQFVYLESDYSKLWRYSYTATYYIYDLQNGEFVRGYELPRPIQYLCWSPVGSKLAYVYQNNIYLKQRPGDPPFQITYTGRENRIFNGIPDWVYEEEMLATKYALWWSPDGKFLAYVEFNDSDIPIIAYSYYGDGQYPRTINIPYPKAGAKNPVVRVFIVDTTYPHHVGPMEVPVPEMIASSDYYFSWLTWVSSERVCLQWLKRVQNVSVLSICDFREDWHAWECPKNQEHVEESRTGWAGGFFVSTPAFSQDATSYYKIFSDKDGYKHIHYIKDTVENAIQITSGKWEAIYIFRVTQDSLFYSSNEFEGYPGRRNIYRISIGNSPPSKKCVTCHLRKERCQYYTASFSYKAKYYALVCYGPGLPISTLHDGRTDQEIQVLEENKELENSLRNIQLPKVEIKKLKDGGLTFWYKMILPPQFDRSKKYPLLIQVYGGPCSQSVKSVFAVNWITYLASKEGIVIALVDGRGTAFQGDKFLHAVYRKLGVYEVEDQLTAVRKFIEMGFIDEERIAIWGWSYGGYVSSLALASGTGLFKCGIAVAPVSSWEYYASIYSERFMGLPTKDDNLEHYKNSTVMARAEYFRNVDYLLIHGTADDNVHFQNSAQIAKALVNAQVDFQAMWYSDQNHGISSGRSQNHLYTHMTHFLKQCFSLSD
Protocol: as §1
Four parameter logistic (4PL) curve fitting and pIC50 calculations were performed using ActivityBase software.

HT-29 cells = test: Stability in the presence of tumor cells (HT-29), FAP IC50 of supernatants; format: in vitro ADME, human
Protocol: Cells were cultured in McCoys's 5A modified medium (Biochrom, #F1015) including 10% fetal bovine serum (FBS), 2 mM L-glutamine, 100 U/ml penicillin and 100 μg/mL streptomycin (growth medium). […] 1 mL of the cell suspension were seeded in 24-well plates and incubated overnight at 37° C. and 5% CO2. The next day, cells were washed twice and growth medium was exchanged against DMEM without phenol red (Biochrom, #F0475) including 2 mM L-glutamine. Test compound was diluted in DMEM without phenol red (Biochrom, #F0475) including 2 mM L-glutamine. 400 μL of a 10 μM solution of the test compound was incubated for 24 hours at 37° C. and 5% CO2 in the presence of cells as well as in control wells (without cells) of the same 24-well plate.
25 μL of a 30 μM substrate solution, diluted in assay buffer, was added. All solutions were equilibrated at 37° C. prior to use. […] RFU/sec was calculated by SoftMax Pro software and plotted against test compound concentration. Four parameter logistic (4PL) curve fitting and IC50/pIC50 calculations were performed using GraphPad Prism 9.1 software.
The stability of exemplary compounds was further assessed in the presence of a variety of human cell lines from different tissue origins. […] Compounds were diluted in DMEM without phenol red (Biochrom, #F0475) including 2 mM L-glutamine. 400 μL of a 10 μM solution of the test compound was incubated for 24 hours at 37° C. and 5% CO2 in the presence of cells as well as in control wells (without cells) of the same 24-well plate. IC50/pIC50 determination of the supernatants was performed as described above.

[5] = target: HEK-FAP cells (HEK293 cells engineered to express the human FAP) (Homo sapiens (Human), UniProt Q12884); test: LigandTracer assay with 111In-labeled compounds; format: binding; conditions: 111In-labeled compound
Protocol: HEK293 cells (human embryonic kidney cells) were engineered to express the human FAP. […] Cell concentrations were adjusted to 3×10^5 mL^−1, and 3.000 μL of the suspension was dispensed into a poly-lysine-coated, clear cell dish (10 cm). Approximately 24 hours after re-seeding, the medium was replaced by assay medium (Ham's medium with 20 mM HEPES) containing 1% FCS. The dish was placed in the LigandTracer® device and a baseline measurement was obtained using the LigandTracer® Control software (version 2.4). […] To determine the dissociation rate (kd) the cells were washed and subsequently incubated with fresh assay medium for several hours.

Compound | % intact compound remaining after incubation, Mouse plasma [1] [%] | pIC50 (Activity) (Human recombinant FAP [2]) | pIC50 (PREP) (recombinant human PREP) | pIC50 (DPP4) (Recombinant human DPP4) | pKD (Biacore) (Human recombinant FAP [3]; SPR) | HL [min] (Biacore) (Human recombinant FAP [3]) | pIC50 (FACS) [4] | pIC50 (mouseFAP) (Recombinant mouse FAP) | IC50 (Human recombinant FAP [2]; read-out: pIC50 (Activity) (converted)) [nM] | Kd (Human recombinant FAP [3]; SPR, read-out: pKD (Biacore) (converted)) [nM] | IC50 [4] [nM] | IC50 (HT-29 cells; 10 μM compound, 24 hours at 37° C. with HT-29 cells, supernatant tested on recombinant human FAP, read-out: pIC50 (incubation in the presence of HT-29 cells) (converted)) [nM] | IC50 (HT-29 cells; HT-29, 10 μM compound, 24 hours at 37° C. in control wells without cells, supernatant tested on recombinant human FAP, read-out: pIC50 (incubation in cell medium w/o HT-29) (converted)) [nM] | Residual activity after incubation with HT-29 cells for 24 hours (%) (HT-29 cells) | HL (half-life) [5] [min] | Kd [5] [nM] | pIC50 (incubation in cell medium w/o HT-29) (HT-29 cells; 10 μM compound, 24 hours at 37° C. in control wells without cells, supernatant tested on recombinant human FAP) | pIC50 (incubation in the presence of HT-29 cells) (HT-29 cells; 10 μM compound, 24 hours at 37° C. with HT-29 cells, supernatant tested on recombinant human FAP)
CS(=O)(=O)c1cccc(-c2ccc3nccc(C(=O)NCC(=O)N4CC(F)(F)C[C@H]4C#N)c3c2)c1 [Compound 3BP-3126] | 78 | 9.2 | <6 | 6.1 | 10.1 | 29 | 8.8 | 9 |  |  |  |  |  |  |  |  |  | 
CS(=O)(=O)c1ccc(-c2ccc3c(C(=O)NCC(=O)N4CCC[C@H]4C#N)ccnc3c2)cc1 [Compound 3BP-3128] | >95 | 8.8 | 6.1 | <6 | 9.2 | 4 | 8.2 |  |  |  |  |  |  |  |  |  |  | 
O=C(O)CN1CCN(CC(=O)O)CCN(CC(=O)NCCCS(=O)(=O)c2ccc(-c3ccc4nccc(C(=O)NCC(=O)N5CCC[C@H]5C(=O)c5nc6ccccc6o5)c4c3)cc2)CCN(CC(=O)O)CC1 [Compound 3BP-3581, (S)-2,2′,2″-(10-(2-(3-(4-(4-(2-(2-(benzo[d]oxazole-2-carbonyl)pyrrolidin-1-yl)-2-oxoethylcarbamoyl)quinolin-6-yl)phenylsulfonyl)propylamino)-2-oxoethyl)-1,4,7,10-tetraazacyclododecane-1,4,7-triyl)triacetic Acid] |  |  |  |  |  | 120 |  |  | 1.26 | < 0.0316 | 1.58 | 2 | 2 | >95 | 345 ± 218 | 0.0794 |  | 
O=C(O)CN1CCN(CC(=O)O)CCN(CC(=O)N2CCN(CCCOc3ccc4nccc(C(=O)NCC(=O)N5CCC[C@H]5C(=O)c5nc6ccccc6o5)c4c3)CC2)CCN(CC(=O)O)CC1 [Compound 3BP-4808] |  |  |  |  | >10.5 | >150 |  |  |  |  |  |  |  | >95 | 20 ± 5 |  | 8.6 | 8.6
O=C(NCC(=O)N1CCC[C@H]1C(=O)c1ncco1)c1ccnc2ccccc12 [Compound 3BP-3208] | 92 | 8.2 | 9.2 | <6 | 8.6 | 0.6 | 7.9 |  |  |  |  |  |  |  |  |  |  | 
CS(=O)(=O)c1cccc(-c2ccc3c(C(=O)NCC(=O)N4CC(F)(F)C[C@H]4C#N)ccnc3c2)c1 [Compound 3BP-3127] | >95 | 9.1 | <6 | <6 | 10.1 |  | 8.7 | 8.9 |  |  |  |  |  |  |  |  |  | 
